What was measured:
CYP2C9 = CYP2C9 (Homo sapiens, UniProt P11712); test: Recombinant isozyme kinetic assay
CYP2B6 = biological target: T1, CYP2B6 (Homo sapiens, UniProt P20813); test: Recombinant isozyme kinetic assay; conditions: substrate desmethyl-terbinafine
T1 sequence (P20813 1-491): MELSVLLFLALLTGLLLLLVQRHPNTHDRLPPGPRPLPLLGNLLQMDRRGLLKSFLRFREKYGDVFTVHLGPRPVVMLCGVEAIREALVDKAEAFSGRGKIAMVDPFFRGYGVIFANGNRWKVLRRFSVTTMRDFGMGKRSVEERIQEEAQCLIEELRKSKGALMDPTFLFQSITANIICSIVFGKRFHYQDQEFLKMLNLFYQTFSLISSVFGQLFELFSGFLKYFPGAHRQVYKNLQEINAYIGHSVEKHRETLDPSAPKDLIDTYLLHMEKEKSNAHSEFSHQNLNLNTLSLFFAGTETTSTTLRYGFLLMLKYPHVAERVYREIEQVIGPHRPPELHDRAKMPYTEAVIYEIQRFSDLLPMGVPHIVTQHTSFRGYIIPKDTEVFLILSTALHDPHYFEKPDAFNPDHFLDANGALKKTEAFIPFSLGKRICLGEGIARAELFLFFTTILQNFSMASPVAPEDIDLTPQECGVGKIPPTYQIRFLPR

CYP1A2 = biological target: T2, CYP1A2 (Homo sapiens, UniProt P05177); test: Recombinant isozyme kinetic assay; conditions: substrate desmethyl-terbinafine
T2 sequence (P05177 1-516): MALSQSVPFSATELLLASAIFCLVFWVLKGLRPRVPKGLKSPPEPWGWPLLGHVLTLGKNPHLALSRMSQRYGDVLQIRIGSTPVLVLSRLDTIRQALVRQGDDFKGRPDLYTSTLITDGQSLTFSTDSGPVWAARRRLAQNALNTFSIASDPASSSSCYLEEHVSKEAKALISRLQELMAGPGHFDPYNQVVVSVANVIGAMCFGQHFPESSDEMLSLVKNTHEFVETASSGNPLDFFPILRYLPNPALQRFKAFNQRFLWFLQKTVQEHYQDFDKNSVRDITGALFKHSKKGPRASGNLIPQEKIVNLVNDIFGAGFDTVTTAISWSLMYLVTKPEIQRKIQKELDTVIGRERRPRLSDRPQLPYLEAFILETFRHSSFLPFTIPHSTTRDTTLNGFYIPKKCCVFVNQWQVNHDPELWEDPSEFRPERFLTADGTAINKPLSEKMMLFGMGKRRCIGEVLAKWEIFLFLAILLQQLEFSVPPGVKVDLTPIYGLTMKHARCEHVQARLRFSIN

CYP2D6 = CYP2D6 (Homo sapiens, UniProt P10635)
CYP2C8 = biological target: T3, CYP2C8 (Homo sapiens, UniProt P10632); test: Recombinant isozyme kinetic assay; conditions: substrate desmethyl-terbinafine
T3 sequence (P10632 1-490): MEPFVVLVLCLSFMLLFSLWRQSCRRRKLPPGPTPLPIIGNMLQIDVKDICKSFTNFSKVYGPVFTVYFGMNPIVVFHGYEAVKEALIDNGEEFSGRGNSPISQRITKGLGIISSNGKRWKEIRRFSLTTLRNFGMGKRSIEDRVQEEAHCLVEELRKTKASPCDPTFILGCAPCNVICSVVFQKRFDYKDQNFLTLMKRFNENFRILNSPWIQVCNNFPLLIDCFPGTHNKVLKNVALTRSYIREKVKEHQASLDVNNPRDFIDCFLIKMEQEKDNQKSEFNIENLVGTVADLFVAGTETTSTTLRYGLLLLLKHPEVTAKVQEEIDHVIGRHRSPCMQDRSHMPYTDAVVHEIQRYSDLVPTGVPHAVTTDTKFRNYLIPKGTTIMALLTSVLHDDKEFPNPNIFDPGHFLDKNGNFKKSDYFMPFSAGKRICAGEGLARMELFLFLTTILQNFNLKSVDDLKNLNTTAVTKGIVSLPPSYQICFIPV

[1] = CYP2C9, Step 2.2b, substrate desmethyl-terbinafine
[2] = normalized MS peak area, scaled x10^6

CYP2C9, sequence (P11712 whole entry): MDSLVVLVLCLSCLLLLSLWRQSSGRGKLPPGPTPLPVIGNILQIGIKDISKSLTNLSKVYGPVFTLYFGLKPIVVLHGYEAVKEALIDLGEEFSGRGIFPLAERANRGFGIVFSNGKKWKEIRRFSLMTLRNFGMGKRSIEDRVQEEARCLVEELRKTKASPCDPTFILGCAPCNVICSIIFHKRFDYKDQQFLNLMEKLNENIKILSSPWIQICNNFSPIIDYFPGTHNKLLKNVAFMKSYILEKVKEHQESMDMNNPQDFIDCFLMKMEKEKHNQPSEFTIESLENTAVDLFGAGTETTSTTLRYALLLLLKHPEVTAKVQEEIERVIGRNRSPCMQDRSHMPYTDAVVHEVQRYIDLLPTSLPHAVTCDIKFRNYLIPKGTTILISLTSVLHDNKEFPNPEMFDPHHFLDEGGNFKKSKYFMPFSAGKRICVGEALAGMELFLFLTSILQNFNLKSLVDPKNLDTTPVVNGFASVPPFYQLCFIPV
CYP2D6, sequence (P10635 whole entry): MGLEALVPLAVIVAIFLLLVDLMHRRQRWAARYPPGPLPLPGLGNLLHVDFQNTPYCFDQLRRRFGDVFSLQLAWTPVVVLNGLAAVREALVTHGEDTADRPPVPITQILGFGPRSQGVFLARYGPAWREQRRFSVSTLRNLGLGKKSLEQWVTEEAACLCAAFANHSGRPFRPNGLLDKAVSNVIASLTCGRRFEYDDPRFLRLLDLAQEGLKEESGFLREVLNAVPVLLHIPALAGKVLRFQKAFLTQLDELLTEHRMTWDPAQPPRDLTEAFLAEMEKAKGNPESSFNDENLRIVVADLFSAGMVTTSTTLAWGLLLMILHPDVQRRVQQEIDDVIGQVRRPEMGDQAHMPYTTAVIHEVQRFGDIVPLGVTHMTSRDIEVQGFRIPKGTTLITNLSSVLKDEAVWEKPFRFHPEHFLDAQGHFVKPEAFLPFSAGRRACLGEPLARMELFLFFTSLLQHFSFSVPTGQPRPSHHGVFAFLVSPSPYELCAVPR

## CC(C)(C)C#C/C=C/CNCc1cccc2ccccc12.Cl [desmethyl-terbinafine, N-desmethyl-terbinafine hydrochloride]
CYP2C9; CYP2C9, Step 2.2a, substrate desmethyl-terbinafine
  Vmax, 1-naphthyl-methylamine formation: 330 ± 41 pmol/min/nmol protein
CYP2C9; [1]
  6,6-dimethyl-2-hepten-4-yn-1-amine formation (steady-state kinetic constants): undetected
  Vmax, 1-naphthaldehyde formation: 69 ± 4.4 pmol/min/nmol protein
CYP2C9; CYP2C9, substrate desmethyl-terbinafine
  desmethyl hydroxyterbinafine formation (kinetic constants): undetected
CYP2C9; CYP2C9, substrate desmethyl-terbinafine, normalized MS peak area, scaled x10^6
  Vmax, desmethyl-terbinafine dihydrodiol formation: 2.0 ± 0.07 μV*sec/min/nmol
CYP2C9; substrate desmethylterbinafine
  fold higher efficiency of dihydrodiol formation by CYP2C9 vs CYP2B6: 50 fold
CYP2B6; Step 2.2b
  6,6-dimethyl-2-hepten-4-yn-1-amine formation (steady-state kinetic constants): undetected
CYP2B6; no saturation
  Vmax, desmethyl hydroxyterbinafine formation: linear
CYP2B6; [2]
  Vmax, desmethyl-terbinafine dihydrodiol formation: 0.59 ± 0.13 μV*sec/min/nmol
CYP1A2
  desmethyl hydroxyterbinafine formation (kinetic constants): undetected
  desmethyl-terbinafine dihydrodiol formation (kinetic constants): undetected
CYP2D6
  desmethyl hydroxyterbinafine formation (kinetic constants): undetected
CYP2C8; Step 2.2a
  Vmax, 1-naphthyl-methylamine formation: 85 ± 6.5 pmol/min/nmol protein
CYP2C8; Step 2.2b
  6,6-dimethyl-2-hepten-4-yn-1-amine formation (steady-state kinetic constants): undetected
  Vmax, 1-naphthaldehyde formation: 300 ± 28 pmol/min/nmol protein
CYP2C8
  desmethyl-terbinafine dihydrodiol formation (kinetic constants): undetected
CYP2C8; [2]
  Vmax, desmethyl hydroxyterbinafine formation: 0.61 ± 0.04 μV*sec/min/nmol

— PMC6905088 (Biochemical pharmacology, 2019)
